Results: patent US11981686B2, “Urea compound having substituent” (DAIICHI SANKYO COMPANY, LIMITED, priority 2019, dated 2024)

Target: SIRT6 enzyme (Homo sapiens, UniProt Q8N6T7)
Assay: Measurement of deacetylation activity (SIRT6, AlphaLISA, H3K9(Ac) peptide)
Format: biochemical
Settings: SIRT6 25 ng/mL, H3K9(Ac) biotin peptide 2 nM, NAD 10 μM, room temperature 30 minutes, duplicate
How it was run: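 SIRT6 (25 ng/mL final) in Tris-HCl pH 8.0 buffer with compound (e.g. 0.046–100 μM final) reacted with biotin-H3K9(Ac) peptide (2 nM) and NAD+ (10 μM), 30 min, room temperature. Stopped with nicotinamide plus AlphaLISA anti-unmodified H3K9/K27 beads, 60 min; EC150 (150% relative activity) from sigmoidal fit.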

Chain of SIRT6 enzyme (Q8N6T7 whole entry, species assumed): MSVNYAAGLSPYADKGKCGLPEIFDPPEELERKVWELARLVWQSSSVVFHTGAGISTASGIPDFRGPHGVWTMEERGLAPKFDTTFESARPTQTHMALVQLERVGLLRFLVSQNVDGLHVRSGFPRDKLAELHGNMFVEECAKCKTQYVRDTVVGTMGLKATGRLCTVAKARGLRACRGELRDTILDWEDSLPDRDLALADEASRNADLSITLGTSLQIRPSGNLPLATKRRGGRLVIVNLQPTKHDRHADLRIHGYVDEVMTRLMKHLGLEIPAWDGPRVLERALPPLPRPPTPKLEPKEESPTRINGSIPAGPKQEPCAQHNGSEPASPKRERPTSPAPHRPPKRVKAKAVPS

| Structure (SMILES) | EC150 (the concentration of the compound showing a relative enzyme activity of 150%) [μm] |
| --- | --- |
| COc1cccc(-c2cc(N3[C@@H]4COC[C@H]3c3sc(NC(=O)NC5CCOCC5)nc3C4)no2)n1 [Example 62, N-{(4S,8S)-10-[5-(6-methoxypyridin-2-yl)-1,2-oxazol-3-yl]-4,7,8,9-tetrahydro-5H-4,8-epiminooxocino[5,4-d][1,3]thiazol-2-yl}-N′-oxan-4-ylurea] | 2.6 |
| CC(C)(O)CNC(=O)Nc1nc2c(s1)[C@@H]1COC[C@H](C2)N1c1cc(-c2ccc(F)cc2)on1 [Example 63, N-{(4S,8S)-10-[5-(4-fluorophenyl)-1,2-oxazol-3-yl]-4,7,8,9-tetrahydro-5H-4,8-epiminooxocino[5,4-d][1,3]thiazol-2-yl}-N′-(2-hydroxy-2-methylpropyl)urea] | 2.3 |
| CNC(=O)Nc1nc2c(s1)C1CN(C(=O)OC)CC(C2)N1c1cc(-c2ccc(F)cc2)on1 (centres unmarked) [Example 64, Methyl 10-[5-(4-fluorophenyl)-1,2-oxazol-3-yl]-2-[(methylcarbamoyl)amino]-4,7,8,9-tetrahydro-4,8-epimino[1,3]thiazolo[5,4-d]azocine-6(5H)-carboxylate] | 0.49 |
| C[C@@H](O)CNC(=O)Nc1nc2c(s1)[C@@H]1COC[C@H](C2)N1c1cc(-c2ccc(F)cc2)on1 [Example 65, N-{(4S,8S)-10-[5-(4-fluorophenyl)-1,2-oxazol-3-yl]-4,7,8,9-tetrahydro-5H-4,8-epiminooxocino[5,4-d][1,3]thiazol-2-yl}-N′-[(2R)-2-hydroxypropyl]urea] | 2.1 |
| C[C@H](CO)NC(=O)Nc1nc2c(s1)[C@@H]1COC[C@H](C2)N1c1ncc(-c2cccc(OC(F)F)n2)o1 [Example 66, N-[(4S,8S)-10-{5-[6-(difluoromethoxy)pyridin-2-yl]-1,3-oxazol-2-yl}-4,7,8,9-tetrahydro-5H-4,8-epiminooxocino[5,4-d][1,3]thiazol-2-yl]-N′-[(2R)-1-hydroxypropan-2-yl]urea] | 0.39 |
| COc1cccc(-c2cnc(N3[C@@H]4COC[C@H]3c3sc(NC(=O)N[C@H](C)CO)nc3C4)o2)n1 [Example 67, N-[(2R)-1-hydroxypropan-2-yl]-N′-{(4S,8S)-10-[5-(6-methoxypyridin-2-yl)-1,3-oxazol-2-yl]-4,7,8,9-tetrahydro-5H-4,8-epiminooxocino[5,4-d][1,3]thiazol-2-yl}urea] | 0.75 |
| CCOc1cccc(-c2cnc(N3[C@@H]4COC[C@H]3c3sc(NC(=O)N[C@H](C)CO)nc3C4)o2)n1 [Example 68, N-{(4S,8S)-10-[5-(6-ethoxypyridin-2-yl)-1,3-oxazol-2-yl]-4,7,8,9-tetrahydro-5H-4,8-epiminooxocino[5,4-d][1,3]thiazol-2-yl}-N′-[(2R)-1-hydroxypropan-2-yl]urea] | 1 |
| CC(C)(CO)NC(=O)Nc1nc2c(s1)[C@@H]1COC[C@H](C2)N1c1ncc(-c2cccc(C(F)F)c2)o1 [Example 69, N-[(4S,8S)-10-{5-[3-(difluoromethyl)phenyl]-1,3-oxazol-2-yl}-4,7,8,9-tetrahydro-5H-4,8-epiminooxocino[5,4-d][1,3]thiazol-2-yl]-N′-(1-hydroxy-2-methylpropan-2-yl)urea] | 0.59 |
| C[C@H](CO)NC(=O)Nc1nc2c(s1)[C@@H]1COC[C@H](C2)N1c1ncc(-c2cccc(OC(F)F)c2)o1 [Example 70, N-[(4S,8S)-10-{5-[3-(difluoromethoxy)phenyl]-1,3-oxazol-2-yl}-4,7,8,9-tetrahydro-5H-4,8-epiminooxocino[5,4-d][1,3]thiazol-2-yl]-N′-[(2R)-1-hydroxypropan-2-yl]urea] | 0.45 |
| C[C@H](CO)NC(=O)Nc1nc2c(s1)[C@@H]1COC[C@H](C2)N1c1ncc(-c2cccc(C(F)F)c2)o1 [Example 71, N-[(4S,8S)-10-{5-[3-(difluoromethyl)phenyl]-1,3-oxazol-2-yl}-4,7,8,9-tetrahydro-5H-4,8-epiminooxocino[5,4-d][1,3]thiazol-2-yl]-N′-[(2R)-1-hydroxypropan-2-yl]urea] | 0.34 |
| C[C@@H](O)CNC(=O)Nc1nc2c(s1)[C@@H]1COC[C@H](C2)N1c1ncc(-c2cccc(C(F)F)c2)o1 [Example 72, N-[(4S,8S)-10-{5-[3-(difluoromethyl)phenyl]-1,3-oxazol-2-yl}-4,7,8,9-tetrahydro-5H-4,8-epiminooxocino[5,4-d][1,3]thiazol-2-yl]-N′-[(2R)-2-hydroxypropyl]urea] | 0.36 |
| O=C(Nc1nc2c(s1)[C@@H]1COC[C@H](C2)N1c1ncc(-c2cccc(OC(F)F)c2)o1)N[C@@H]1CCOC1 [Example 73, N-[(4S,8S)-10-{5-[3-(difluoromethoxy)phenyl]-1,3-oxazol-2-yl}-4,7,8,9-tetrahydro-5H-4,8-epiminooxocino[5,4-d][1,3]thiazol-2-yl]-N′-[(3R)-oxolan-3-yl]urea] | 0.4 |
| C[C@H](CO)NC(=O)Nc1nc2c(s1)CN(c1nc3cc(S(C)(=O)=O)ccc3o1)C(C)(C)C2 [Example 74, N-[(2R)-1-hydroxypropan-2-yl]-N′-{5-[5-(methanesulfonyl)-1,3-benzoxazol-2-yl]-6,6-dimethyl-4,5,6,7-tetrahydro[1,3]thiazolo[5,4-c]pyridin-2-yl}urea] | 0.68 |
| CC(C)(O)CNC(=O)Nc1nc2c(s1)CN(c1nc3cc(S(C)(=O)=O)ccc3o1)C(C)(C)C2 [Example 75, N-(2-hydroxy-2-methylpropyl)-N′-{5-[5-(methanesulfonyl)-1,3-benzoxazol-2-yl]-6,6-dimethyl-4,5,6,7-tetrahydro[1,3]thiazolo[5,4-c]pyridin-2-yl}urea] | 0.94 |
| [2H]C([2H])([2H])Oc1ccc2oc(N3[C@@H]4COC[C@H]3c3sc(NC(=O)N[C@H](C)CO)nc3C4)nc2c1 [Example 76, N-[(2R)-1-hydroxypropan-2-yl]-N′-[(4S,8S)-10-{5-[(^2H3)methyloxy]-1,3-benzoxazol-2-yl}-4,7,8,9-tetrahydro-5H-4,8-epiminooxocino[5,4-d][1,3]thiazol-2-yl]urea] | 1.3 |
| [2H]C([2H])([2H])Oc1ccc2oc(N3[C@@H]4COC[C@H]3c3sc(NC(=O)N[C@@H]5CCOC5)nc3C4)nc2c1 [Example 77, N-[(4S,8S)-10-{5-[(^2H3)methyloxy]-1,3-benzoxazol-2-yl}-4,7,8,9-tetrahydro-5H-4,8-epiminooxocino[5,4-d][1,3]thiazol-2-yl]-N′-[(3R)-oxolan-3-yl]urea] | 0.79 |
| COc1cccc(-c2cnc(N3[C@@H]4COC[C@H]3c3sc(NC(=O)N[C@H]5C[C@H](O)C5)nc3C4)o2)n1 [Example 78, N-[(1r,3S)-3-hydroxycyclobutyl]-N′-{(4S,8S)-10-[5-(6-methoxypyridin-2-yl)-1,3-oxazol-2-yl]-4,7,8,9-tetrahydro-5H-4,8-epiminooxocino[5,4-d][1,3]thiazol-2-yl}urea] | 0.41 |
| CCOc1cccc(-c2cnc(N3[C@@H]4COC[C@H]3c3sc(NC(=O)NCC(C)(C)O)nc3C4)o2)n1 [Example 79, N-{(4S,8S)-10-[5-(6-ethoxypyridin-2-yl)-1,3-oxazol-2-yl]-4,7,8,9-tetrahydro-5H-4,8-epiminooxocino[5,4-d][1,3]thiazol-2-yl}-N′-(2-hydroxy-2-methylpropyl)urea] | 1.2 |
| CCOc1cccc(-c2cnc(N3[C@@H]4COC[C@H]3c3sc(NC(=O)N[C@H]5C[C@H](O)C5)nc3C4)o2)n1 [Example 80, N-{(4S,8S)-10-[5-(6-ethoxypyridin-2-yl)-1,3-oxazol-2-yl]-4,7,8,9-tetrahydro-5H-4,8-epiminooxocino[5,4-d][1,3]thiazol-2-yl}-N′-[(1r,3S)-3-hydroxycyclobutyl]urea] | 0.48 |
| C[C@H](O)CNC(=O)Nc1nc2c(s1)C1COCC(C2)N1c1nc(-c2ccc(F)cc2)no1 (stereo partly drawn) [Example 81, N-{10-[3-(4-fluorophenyl)-1,2,4-oxadiazol-5-yl]-4,7,8,9-tetrahydro-5H-4,8-epiminooxocino[5,4-d][1,3]thiazol-2-yl}-N′-[(2S)-2-hydroxypropyl]urea] | 1.4 |
| C[C@@H](O)CNC(=O)Nc1nc2c(s1)C1COCC(C2)N1c1nc(-c2ccc(F)cc2)no1 (stereo partly drawn) [Example 82, N-{10-[3-(4-fluorophenyl)-1,2,4-oxadiazol-5-yl]-4,7,8,9-tetrahydro-5H-4,8-epiminooxocino[5,4-d][1,3]thiazol-2-yl}-N′-[(2R)-2-hydroxypropyl]urea] | 1.7 |
| COc1cc(-c2noc(N3C4COCC3c3sc(NC(=O)N[C@H](C)CO)nc3C4)n2)ccc1F (stereo partly drawn) [Example 83, N-{10-[3-(4-fluoro-3-methoxyphenyl)-1,2,4-oxadiazol-5-yl]-4,7,8,9-tetrahydro-5H-4,8-epiminooxocino[5,4-d][1,3]thiazol-2-yl}-N′-[(2R)-1-hydroxypropan-2-yl]urea] | 0.68 |
| O=C(Nc1nc2c(s1)C1COCC(C2)N1c1nc(-c2ccc(F)cc2)no1)N[C@H]1C[C@H](CO)C1 (some centres unmarked) [Example 84, N-{10-[3-(4-fluorophenyl)-1,2,4-oxadiazol-5-yl]-4,7,8,9-tetrahydro-5H-4,8-epiminooxocino[5,4-d][1,3]thiazol-2-yl}-N′-[(1r,3r)-3-(hydroxymethyl)cyclobutyl]urea] | 0.62 |
